According to patent US20230414555A1, “USE OF DIHYDROMYRICETIN AS EPIGENETIC ACTIVE INGREDIENT FOR COSMETIC OR DERMATOLOGICAL SKIN CARE” (BEIERSDORF AG, priority 2020, published 2023):

Assays:
recombinant DNMT1 enzyme = target: T1, recombinant DNMT1 enzyme (Homo sapiens, UniProt P26358); assay: cell-free DNMT Activity/Inhibition Assay (Active Motif); format: biochemical; conditions: manufacturer's standard protocol, FIG. 1
T1 construct: purchased Active Motif, Belgium
Source text: Here, the assay manufacturer's standard protocol was used.

[1] = system: DNA methylation of 850 000 CpGs in the epidermis; assay: in vivo study: epidermal DNA methylation by EPIC technology after cream application and UV irradiation; conditions: verum cream on lower back for two weeks, UV 0.8 MED on three consecutive days, compared to unirradiated control, n=32, FIG. 2
Procedure: To this end, test subjects (n=32) applied cream comprising a vehicle and a verum including dihydromyricetin to the lower back for two weeks. After the two-week treatment period, the test subjects were irradiated with UV (0.8 MED) on three consecutive days in order to imitate an age-relevant environmental influence. 24 hours after the final UV irradiation, suction blisters were produced and the epidermis was harvested. The DNA was isolated from the epidermis and the state of the DNA methylation of 850 000 CpGs was determined by means of EPIC technology from Illumina.

[2] = system: expression of 45 genes in the epidermis; assay: in vivo study: gene expression in epidermis (TaqMan) after eight weeks of cream application; conditions: verum cream on inner forearm for eight weeks, 19 test subjects (50-65 years), 45 genes analyzed, ΔΔCt method, FIG. 3
Procedure: To this end, 19 test subjects (50-65 years) applied cream comprising a vehicle and a verum including dihydromyricetin to the inner forearm over a period of eight weeks. Suction blisters were then produced and the epidermis was harvested. The RNA was isolated from the epidermis samples (RNeasy Fibrous Tissue Kit, Qiagen, Hilden) and the expression of 45 genes (+3 endogenous control genes) was analyzed using the TaqMan system (7900HT Fast Real-Time PCR System, Applied Biosystems). […] The changes in expression were calculated using the ΔΔCt method.

T1 sequence (P26358 whole entry): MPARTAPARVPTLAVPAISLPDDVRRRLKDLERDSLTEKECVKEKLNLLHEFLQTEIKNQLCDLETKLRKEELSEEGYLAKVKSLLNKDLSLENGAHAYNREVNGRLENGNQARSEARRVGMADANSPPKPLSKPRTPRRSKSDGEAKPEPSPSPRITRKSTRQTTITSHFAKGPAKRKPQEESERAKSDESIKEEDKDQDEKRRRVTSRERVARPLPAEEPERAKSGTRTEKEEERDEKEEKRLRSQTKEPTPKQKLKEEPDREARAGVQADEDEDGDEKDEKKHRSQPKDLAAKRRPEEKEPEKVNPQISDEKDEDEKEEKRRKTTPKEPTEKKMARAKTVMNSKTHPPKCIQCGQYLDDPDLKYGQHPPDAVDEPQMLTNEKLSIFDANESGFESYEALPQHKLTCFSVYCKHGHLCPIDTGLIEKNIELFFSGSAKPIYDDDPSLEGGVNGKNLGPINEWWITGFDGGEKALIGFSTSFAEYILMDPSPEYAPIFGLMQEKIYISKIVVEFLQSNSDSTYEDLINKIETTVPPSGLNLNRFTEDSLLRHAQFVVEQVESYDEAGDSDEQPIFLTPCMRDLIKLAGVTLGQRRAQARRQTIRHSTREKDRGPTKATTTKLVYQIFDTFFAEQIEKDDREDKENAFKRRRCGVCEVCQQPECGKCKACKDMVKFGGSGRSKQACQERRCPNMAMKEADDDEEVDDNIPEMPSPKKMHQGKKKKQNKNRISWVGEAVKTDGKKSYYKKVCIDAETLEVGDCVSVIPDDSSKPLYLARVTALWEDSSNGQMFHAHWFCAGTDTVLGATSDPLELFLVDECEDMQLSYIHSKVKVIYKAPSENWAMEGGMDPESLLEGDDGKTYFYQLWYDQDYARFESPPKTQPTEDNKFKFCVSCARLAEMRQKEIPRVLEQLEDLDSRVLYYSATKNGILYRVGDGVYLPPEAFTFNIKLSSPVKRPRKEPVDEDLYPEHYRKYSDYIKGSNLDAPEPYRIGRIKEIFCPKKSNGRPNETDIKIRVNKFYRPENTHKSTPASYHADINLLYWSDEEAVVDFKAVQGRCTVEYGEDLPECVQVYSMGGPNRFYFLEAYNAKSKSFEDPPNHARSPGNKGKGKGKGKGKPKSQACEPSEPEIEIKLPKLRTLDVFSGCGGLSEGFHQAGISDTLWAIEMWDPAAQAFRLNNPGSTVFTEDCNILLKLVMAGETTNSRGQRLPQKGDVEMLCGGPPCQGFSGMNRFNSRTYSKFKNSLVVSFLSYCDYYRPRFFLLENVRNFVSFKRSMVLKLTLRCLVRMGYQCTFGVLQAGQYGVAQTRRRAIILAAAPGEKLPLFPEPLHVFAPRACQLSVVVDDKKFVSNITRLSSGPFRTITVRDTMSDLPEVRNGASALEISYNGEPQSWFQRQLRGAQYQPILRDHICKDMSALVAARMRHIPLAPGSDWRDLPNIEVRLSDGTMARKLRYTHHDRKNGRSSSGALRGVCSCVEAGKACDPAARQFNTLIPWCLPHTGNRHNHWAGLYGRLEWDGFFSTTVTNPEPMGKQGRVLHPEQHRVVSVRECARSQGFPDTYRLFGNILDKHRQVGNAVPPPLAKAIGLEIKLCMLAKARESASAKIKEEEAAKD

SMILES: O=C1c2c(O)cc(O)cc2O[C@H](c2cc(O)c(O)c(O)c2)[C@H]1O [dihydromyricetin, (2R,3R)-3,5,7-trihydroxy-2-(3,4,5-trihydroxyphenyl)chroman-4-one]
- inhibition of the recombinant DNMT1 enzyme (recombinant DNMT1 enzyme): concentration-dependent inhibition
- methylation changes at CpGs at which the vehicle-treated area did not show any significant methylation changes [1]: 16 389 CpGs
- genes with significant increase in expression in comparison to vehicle-treated control samples [2]: 16 genes
